Data from US5672715A, “Herbicidal substituted 3-aryl-pyrazoles” (Monsanto Company, priority 1995, dated 1997).
Values joined by “and” are separate entries in the source; they are usually repeats but may differ in a detail not shown here. Equal values may be shown once.

Experiments:
Assay type in all cases: in vivo
[1] = tested on: Bedstraw Catchweed; test: pre-emergence herbicide test; settings: Galium aparine, pre-emergence, 0.25 lb/A; read-out: % plant inhibition
Description: (§1) Topsoil was placed in an aluminum pan and compacted to a depth of 1.3 to 1.6 cm from the top of the pan. On the top of the soil was placed a predetermined number of seeds of each of several monocotyledonous and dicotyledonous annual plant species and/or vegetative propagules of various perennial plant species. The pan was then level filled with a cover layer of topsoil to which was added a known amount of active ingredient either prior to or after application of the cover layer. The active ingredient was dissolved or suspended in an organic solvent, e.g., acetone, or water as carrier for application to the cover layer. The pans were moved to a greenhouse bench where they were thereafter watered from below as needed to give adequate moisture for germination and growth. In some cases, an initial overhead irrigation of 1/4 inch of water was applied immediately after treatment.
(§2) Approximately 14 days after seeding and treating, the pans were observed and the results (% inhibition) were recorded.
(§3) The tables below summarize the results of the pre-emergence herbicidal activity tests of compounds of this invention tested with warm season plants (Tables 2a-2d) and cool season plants (Tables 3a and 3b). The herbicidal rating shown in these tables is the percent inhibition of each plant species. The plant species usually regarded as weeds are identified in the tables by single letter headings and crop species identified by two letter headings both headings being above the columns in accordance with the following legend: […]

[2] = tested on: Birdseye Speedwell; test: pre-emergence herbicide test; settings: pre-emergence, 0.25 lb/A; read-out: % plant inhibition
Description: as §1, §2, §3

[3] = tested on: Blackgrass; test: pre-emergence herbicide test; settings: Alopecurus myosuroides, pre-emergence, 0.25 lb/A; read-out: % plant inhibition
Description: as §1, §2, §3

[4] = tested on: Common Chickweed; test: pre-emergence herbicide test; settings: pre-emergence, 0.25 lb/A; read-out: % plant inhibition
Description: as §1, §2, §3

[5] = tested on: Downy Brome; test: pre-emergence herbicide test; settings: Bromus tectorum, pre-emergence, 0.25 lb/A; read-out: % plant inhibition
Description: as §1, §2, §3

[6] = tested on: Green Foxtail; test: pre-emergence herbicide test; settings: Setaria viridis, pre-emergence; 0.25 lb/A; read-out: % plant inhibition
Description: as §1, §2, §3

[7] = tested on: Rape; test: pre-emergence herbicide test; settings: pre-emergence, 0.25 lb/A; read-out: % plant inhibition
Description: as §1, §2, §3

[8] = tested on: Wheat; test: pre-emergence herbicide test; settings: Triticum aestivum, pre-emergence, 0.25 lb/A; read-out: % plant inhibition
Description: as §1, §2, §3

[9] = tested on: Wild Oats; test: pre-emergence herbicide test; settings: Avena fatua, pre-emergence, 0.25 lb/A; read-out: % plant inhibition
Description: as §1, §2, §3

[10] = tested on: Barnyardgrass; test: post-emergence herbicide test; settings: Echinochloa crus-galli, post-emergence, 0.25 lb/A; read-out: % plant inhibition
Description: (§4) Topsoil was placed in aluminum pans having holes in the bottom and compacted to a depth of 1.3 to 1.6 cm from the top of the pan. A predetermined number of seeds of each of several dicotyledonous and monocotyledonous annual plant species and/or vegetative propagules for the perennial plant species were placed on the soil and pressed into the soil surface. The seeds and/or vegetative propagules were covered with soil and leveled. The pans were then placed on a bench in the greenhouse and watered either from overheard irrigation or by subirrigation as needed. After the plants reach the desired age (two to three weeks), each pan, is removed individually to a spraying chamber and sprayed by means of an atomizer, operating at a spray pressure of 170.3 kPa […] at the application rates noted. In the spray solution was an amount of an emulsifying agent mixture to give a spray solution or suspension which contains about 0.4% by volume of the emulsifier. The spray solution or suspension contained a sufficient amount of the candidate chemical in order to give application rates of the active ingredient corresponding to those shown in Tables 4 and 5, while applying a total amount of solution or suspension equivalent to 1870 L/Ha (200 gallons/acre). […] The post-emergent herbicidal activity shown in these tables is the percent inhibition of each plant species. Testing with warm season and cool season plants is shown in tables 4a-4d and […], respectively.

[11] = tested on: Bedstraw Catchweed; test: post-emergence herbicide test; settings: Galium aparine, post-emergence, 0.25 lb/A; read-out: % plant inhibition
Description: as §4

[12] = tested on: Birdseye Speedwell; test: post-emergence herbicide test; settings: post-emergence, 0.25 lb/A; read-out: % plant inhibition
Description: as §4

[13] = tested on: Blackgrass; test: post-emergence herbicide test; settings: Alopecurus myosuroides, post-emergence, 0.25 lb/A; read-out: % plant inhibition
Description: as §4

[14] = tested on: Cocklebur; test: post-emergence herbicide test; settings: Xanthium strumarium, post-emergence, 0.25 lb/A; read-out: % plant inhibition
Description: as §4

[15] = tested on: Common Chickweed; test: post-emergence herbicide test; settings: post-emergence, 0.25 lb/A; read-out: % plant inhibition
Description: as §4

[16] = tested on: Corn; test: post-emergence herbicide test; settings: Zea mays, post-emergence, 0.25 lb/A; read-out: % plant inhibition
Description: as §4

[17] = tested on: Downy Brome; test: post-emergence herbicide test; settings: Bromus tectorum, post-emergence, 0.25 lb/A; read-out: % plant inhibition
Description: as §4

[18] = tested on: Giant Foxtail; test: post-emergence herbicide test; settings: Setaria faberi, post-emergence, 0.25 lb/A; read-out: % plant inhibition
Description: as §4

[19] = tested on: Green Foxtail; test: post-emergence herbicide test; settings: Setaria viridis, post-emergence, 0.25 lb/A; read-out: % plant inhibition
Description: as §4

[20] = tested on: Morning Glory; test: post-emergence herbicide test; settings: Ipomoea, post-emergence, 0.25 lb/A; read-out: % plant inhibition
Description: as §4

[21] = tested on: Rape; test: post-emergence herbicide test; settings: post-emergence, 0.25 lb/A; read-out: % plant inhibition
Description: as §4

[22] = tested on: Seedling Johnsongrass; test: post-emergence herbicide test; settings: Sorghum halepense, post-emergence, 0.25 lb/A; read-out: % plant inhibition
Description: as §4

[23] = tested on: Soybean; test: post-emergence herbicide test; settings: Glycine max, post-emergence, 0.25 lb/A; read-out: % plant inhibition
Description: as §4

[24] = tested on: Velvetleaf; test: post-emergence herbicide test; settings: Abutilon theophrasti, post-emergence, 0.25 lb/A; read-out: % plant inhibition
Description: as §4

[25] = tested on: Wheat; test: post-emergence herbicide test; settings: Triticum aestivum, post-emergence, 0.25 lb/A; read-out: % plant inhibition
Description: as §4

[26] = tested on: Wild Oats; test: post-emergence herbicide test; settings: Avena fatua, post-emergence, 0.25 lb/A; read-out: % plant inhibition
Description: as §4

[27] = tested on: Corn; test: pre-emergence herbicide test; settings: 0.25 lb/A
Description: as §1, §2, §3

[28] = tested on: Soybean; test: pre-emergence herbicide test; settings: 0.25 lb/A
Description: as §1, §2, §3

[29] = tested on: Velvetleaf; test: pre-emergence herbicide test; settings: Abutilon theophrasti, pre-emergence, 0.25 lb/A; read-out: % plant inhibition
Description: as §1, §2, §3

Compound	inhibition at 280.212 g/ha [1] [%]	inhibition at 280.212 g/ha [2] [%]	inhibition at 280.212 g/ha [3] [%]	inhibition at 280.212 g/ha [4] [%]	inhibition at 280.212 g/ha [5] [%]	inhibition at 280.212 g/ha [6] [%]	inhibition at 280.212 g/ha [7] [%]	inhibition at 280.212 g/ha [8] [%]	inhibition at 280.212 g/ha [9] [%]	inhibition at 280.212 g/ha [10] [%]	inhibition at 280.212 g/ha [11] [%]	inhibition at 280.212 g/ha [12] [%]	inhibition at 280.212 g/ha [13] [%]	inhibition at 280.212 g/ha [14] [%]	inhibition at 280.212 g/ha [15] [%]	inhibition at 280.212 g/ha [16] [%]	inhibition at 280.212 g/ha [17] [%]	inhibition at 280.212 g/ha [18] [%]	inhibition at 280.212 g/ha [19] [%]	inhibition at 280.212 g/ha [20] [%]	other results
CC(C)OC(=O)c1cc(-c2nn(C)c(C(F)(F)F)c2C=O)c(F)cc1Cl [Compound 12, 2-Chloro-4-fluoro-5-[4-formyl-1-methyl-5-(trifluoromethyl)-1H-pyrazol-3-yl]benzoic acid, 1-methylethyl ester]	65	80	60	85	60	98	15	5	60	80	95	100	50	98	100	15	90	35	90	99	inhibition at 280.212 g/ha [21]: 100%; inhibition at 280.212 g/ha [22]: 65%; inhibition at 280.212 g/ha [23]: 85%; inhibition at 280.212 g/ha [24]: 99%; inhibition at 280.212 g/ha [25]: 30%; inhibition at 280.212 g/ha [26]: 85%
Cc1cc(-c2nn(C)c(C(F)(F)F)c2C)c(F)cc1Cl [Compound 33]	45	55	40	30	10	50	10	0	5	0	10	15	5	0	10	0	5	0	15	10	% plant inhibition [27]: 10%; % plant inhibition [28]: 5% and 0%; inhibition at 280.212 g/ha [21]: 5%; inhibition at 280.212 g/ha [22]: 0%; inhibition at 280.212 g/ha [23]: 15%; inhibition at 280.212 g/ha [24]: 10%; inhibition at 280.212 g/ha [25]: 5%; inhibition at 280.212 g/ha [26]: 5%
COCc1cc(-c2nn(C)c(C(F)(F)F)c2C)c(F)cc1Cl [Compound 11]	75	95	60	25	10	100	15	0	20	0	50	60	15	15	10	15	10	0	25	25	inhibition at 280.212 g/ha [21]: 5%; inhibition at 280.212 g/ha [22]: 5%; inhibition at 280.212 g/ha [23]: 20%; inhibition at 280.212 g/ha [24]: 50%; inhibition at 280.212 g/ha [25]: 6%; inhibition at 280.212 g/ha [26]: 5%
Cc1c(-c2cc(CO)c(Cl)cc2F)nn(C)c1C(F)(F)F [Compound 9, 2-Chloro-5-[1,4-dimethyl-5-(trifluoromethyl)-1H-pyrazol-3-yl]-4-fluorobenzenemethanol]	20	90	50	90	5	100	30	0	5	25	50	35	20	35	15	10	25	10	20	45	% plant inhibition [28]: 0%; inhibition at 280.212 g/ha [29]: 98%; inhibition at 280.212 g/ha [21]: 20%; inhibition at 280.212 g/ha [22]: 20%; inhibition at 280.212 g/ha [23]: 60%; inhibition at 280.212 g/ha [24]: 95%; inhibition at 280.212 g/ha [25]: 13%; inhibition at 280.212 g/ha [26]: 25%
Cc1c(-c2cc(CBr)c(Cl)cc2F)nn(C)c1C(F)(F)F [Compound 10, 3-[5-(Bromomethyl)-4-chloro-2-fluorophenyl]-1,4-dimethyl-5-(trifluoromethyl)-1H-pyrazole]	30	50	20	5	25	98	50	0	5	5	25	90	20	55	15	3	25	15	50	35	inhibition at 280.212 g/ha [21]: 35%; inhibition at 280.212 g/ha [22]: 15%; inhibition at 280.212 g/ha [23]: 8%; inhibition at 280.212 g/ha [24]: 90%; inhibition at 280.212 g/ha [25]: 10%; inhibition at 280.212 g/ha [26]: 10%
